Results as given in ChEMBL document CHEMBL1201862, “PubChem BioAssay data set” (2004).
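Where inhibition never reached the appropriate level, the endpoint shown equals the highest concentration tested. Otherwise, values were interpolated linearly from a five-concentration, 48-hour dose response in 96-well plates. GI50 = concentration required for 50% inhibition of growth.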 Calls of active or inactive are those of the source. No stated cut-off is given here; in the data, active = GI50 up to about 1.1 µM and inactive = higher.

Experiments:
Test in all cases: NCI tumour cell line growth inhibition, 48 h
BT-549 = test system: BT-549
XF498 = test system: XF498
M19-MEL = test system: M19-MEL
KM-20L2 = test system: KM-20L2
DMS-114 = test system: DMS-114
DMS-273 = test system: DMS-273
DLD-1 = test system: DLD-1
HOP-18 = test system: HOP-18
RXF 631 = test system: RXF 631

Compound	GI50 (BT-549)	GI50 (M19-MEL)	GI50 (KM-20L2)	GI50 (DMS-273)	GI50 (DLD-1)	further results
COc1c(O)ccc2c1CN1CCc3cc4c(cc3C1C2)OCO4 (stereo unspecified)	28.2 µM (inactive)	–	–	–	–	–
Nc1[nH]nc2ccccc12	> 100 µM (inactive)	–	–	–	–	–
CCOC(=O)c1c(N=C(S)Nc2ccc(Cl)cc2)sc2c1CCN(C)C2	78.9 µM (inactive)	–	–	–	–	–
O=c1[nH]c2nccnc2c2c([N+](=O)[O-])cccc12	65.2 µM (inactive)	–	–	–	–	–
Nc1ccc(Oc2ccc(C34CC5C6CC7(c8ccc(Oc9ccc(N)cc9)cc8)CC5C(C3)C(C7)C6C4)cc2)cc1	> 100 µM (inactive)	–	–	–	–	–
N#CCCN(CCC#N)c1ccc(/C=C2\N=C(c3cc([N+](=O)[O-])ccc3Cl)OC2=O)cc1	–	20.5 µM (inactive)	> 100 µM (inactive)	> 100 µM (inactive)	–	GI50 (XF498): 35.4 µM (inactive); GI50 (DMS-114): 25.4 µM (inactive)
O=C1C(C2=[N+]([O-])c3ccccc3C2=O)=[N+]([O-])c2ccccc21	–	24.3 µM (inactive)	–	30.9 µM (inactive)	23.9 µM (inactive)	GI50 (HOP-18): 20.2 µM (inactive); GI50 (DMS-114): 17.9 µM (inactive)
NC(=S)N/N=C/c1nccc2ccccc12	–	0.918 µM (active)	0.375 µM (active)	0.272 µM (active)	1.12 µM (active)	GI50 (HOP-18): 1.21 µM (inactive); GI50 (DMS-114): 0.361 µM (active)
COC(=O)c1c(O)ccc2c1c1c(n2-c2ccc(OC)cc2)C(=O)c2ccccc2C1=O	22 µM (inactive)	–	–	–	–	–
COc1cc([C@@H]2c3cc4c(cc3[C@@H](NC(=O)c3cccc(C#N)c3)C3COC(=O)[C@@H]32)OCO4)cc(OC)c1O (stereo partly specified)	–	–	1.63 µM (inactive)	0.0847 µM (active)	2 µM (inactive)	GI50 (HOP-18): > 100 µM (inactive); GI50 (RXF 631): 1.56 µM (inactive)
CCOC(=O)CC(=O)NC1CC2CCC1(C)C2(C)C (stereo unspecified)	> 100 µM (inactive)	–	–	–	–	–
O=C(CC(=O)N1N=C(N2CCCCC2)CC1c1ccccc1)Nc1ccccc1 (stereo unspecified)	> 100 µM (inactive)	–	–	–	–	–
CC[n+]1[b-](C(C)(C)C)n(/N=C(\C)C(C)(C)C)[b-](C(C)(C)C)[n+]1CC	> 100 µM (inactive)	–	–	–	–	–
[O-][Cl+3]([O-])([O-])[O-].c1ccc(-c2[o+]c(-c3ccccc3)c(-c3ccccc3)c(-c3ccccc3)c2-c2ccccc2)cc1	–	> 100 µM (inactive)	> 100 µM (inactive)	> 100 µM (inactive)	> 100 µM (inactive)	GI50 (HOP-18): > 100 µM (inactive); GI50 (RXF 631): > 100 µM (inactive)
CCOC(=O)C(Cc1ccc(O)cc1)Nc1nc(=O)c2c(=O)oc(Cl)cc2o1 (stereo unspecified)	2.47 µM (inactive)	–	–	–	–	–
COC(C)(C)C1=CCC(C)CC1 (stereo unspecified)	> 100 µM (inactive)	–	–	–	–	–
CNC1Cc2c[nH]c3cccc(c23)C12C=C(C)C(=O)O2 (stereo unspecified)	> 100 µM (inactive)	–	–	–	–	–

Compound	GI50 (BT-549)	GI50 (M19-MEL)	GI50 (KM-20L2)	GI50 (DMS-273)	GI50 (DLD-1)	further results
O=C(CN1CCCCC1)CC(O)(C(F)(F)F)C(F)(F)F	> 100 µM (inactive)	–	–	–	–	–
Cc1ccc(Cn2c(C)nc3c2C(=O)c2ccccc2C3=O)cc1	–	7.05 µM (inactive)	5.21 µM (inactive)	1.07 µM (active)	1.22 µM (inactive)	GI50 (XF498): 15.1 µM (inactive)
CC[C@@H]1CC[C@@H]2[C@H](CC[C@]3(C)[C@@H](O[N+](=O)[O-])CC[C@@H]23)[C@H]1C(C)=O	50 µM (inactive)	–	–	–	–	–
NC1=Nc2ccccc2Sc2nnc(-c3ccc(Cl)cc3)n21	> 100 µM (inactive)	–	–	–	–	–
COC(=O)NC1(NC(=O)OC)NC(=O)c2cc(OC)c(OC)c(OC)c2N1	22.4 µM (inactive)	–	–	–	–	–
C[N+]12C=CC=C1C(N1CCCC1)c1scc(-c3ccc(Br)cc3)c12 (stereo unspecified)	1.79 µM (inactive)	–	–	–	–	–
Cc1ccc(NNc2cc(=O)[nH]c(=O)[nH]2)cc1Cl	41.1 µM (inactive)	–	–	–	–	–
NCCCNc1ccc2c(c1)[n+]([O-])c1ccccc1[n+]2[O-]	13.6 µM (inactive)	–	–	–	–	–
COC(=O)c1cn(CCCCO)nn1	> 100 µM (inactive)	–	–	–	–	–
CC(C)(C)c1cc([Si](C)(C)C)c(C#N)c([Si](C)(C)C)c1	–	43.2 µM (inactive)	> 100 µM (inactive)	49.1 µM (inactive)	> 100 µM (inactive)	GI50 (XF498): 24.2 µM (inactive); GI50 (HOP-18): > 100 µM (inactive); GI50 (DMS-114): 33.8 µM (inactive)
COc1cc(/C=C2\C(=O)N(C(=O)Cc3ccccc3)N=C2C)ccc1O	–	> 100 µM (inactive)	–	> 100 µM (inactive)	> 100 µM (inactive)	GI50 (XF498): > 100 µM (inactive); GI50 (HOP-18): > 100 µM (inactive); GI50 (DMS-114): > 100 µM (inactive)
CC1(C)CC(/C=C2/OC(=O)c3ccccc32)=C(C#N)C(=O)O1	–	> 100 µM (inactive)	> 100 µM (inactive)	> 100 µM (inactive)	> 100 µM (inactive)	GI50 (XF498): > 100 µM (inactive); GI50 (RXF 631): > 100 µM (inactive)
O=C1CN(c2ccc(Cl)cc2)C(=O)CN1NCNN1CC(=O)N(c2ccc(Cl)cc2)CC1=O	> 100 µM (inactive)	–	–	–	–	–
COc1ccc(/C(=N\NC(=O)C(N)=O)C(c2ccc(OC)cc2)C2(O)C(=O)Nc3c(Cl)cccc32)cc1 (stereo unspecified)	–	> 100 µM (inactive)	> 100 µM (inactive)	–	> 100 µM (inactive)	GI50 (XF498): > 100 µM (inactive); GI50 (HOP-18): > 100 µM (inactive); GI50 (DMS-114): > 100 µM (inactive)
CC1=Nc2ccccc2SC(c2c(Cl)cccc2Cl)C1 (stereo unspecified)	–	1.16 µM (inactive)	1.59 µM (inactive)	0.792 µM (active)	0.331 µM (active)	GI50 (XF498): 1.8 µM (inactive); GI50 (HOP-18): 3.51 µM (inactive); GI50 (DMS-114): 1.52 µM (inactive)
Cc1cc(O)nc(NNC(C#N)c2ccco2)n1 (stereo unspecified)	–	> 100 µM (inactive)	> 100 µM (inactive)	> 100 µM (inactive)	> 100 µM (inactive)	GI50 (HOP-18): > 100 µM (inactive); GI50 (DMS-114): > 100 µM (inactive)
